Series [1] has as its system HSV-1. Description: Plaque reduction assay (PRA), HSV-1 in Vero cells. The format is cell-based, Herpes simplex virus 1. As to conditions: Human alphaherpesvirus 1, Vero. (Plaque reduction counts the foci of infection that form in a cell layer.)
The test system of series [2] is hCoV-229E. Description: Anti-hCoV-229E activity in MRC5 fibroblasts (CPE, CellTiter-Glo). The series is classed as cell-based.
Series [3] relates to HSV-2. Description: Plaque reduction assay (PRA), HSV-2 in Vero cells. The format is cell-based, Herpes simplex virus 2. The following applies: Human alphaherpesvirus 2, Vero, read-out: EC50 HSV-2.
Series [4] relates to RSV. Description: Plaque reduction assay (PRA), RSV in HEp-2 cells. The format is cell-based. The following applies: human respiratory syncytial virus, HEp-2, read-out: EC50 RSV.
The subject of series [5] is Influenza A virus (A/Puerto Rico/8/34). Description: microbe, parasite or virus in culture. The following applies: PRA, MDCK cells. The series is classed as cell-based.
A short description of series [6]: in vitro. The format is cell-based. The following applies: human.
The nature of series [7]: Cytotoxicity on MDCK cells (Cell Titer Glo). The format is cell-based, Canine. As to conditions: dog, read-out: CC50 (Influenza A row).
Series [8] in a line: in vitro. The following applies: African green monkey.
Series [9] can be described thus: log D (pH 7.4), shake-flask n-octanol/PBS. The following applies: n-octanol/PBS pH 7.4, shake flask.
Protocol: (§1) Lipophilicity. The shake flask method was chosen to determinate logD7.4.
(§2) The partition coefficients between n-octanol and PBS at pH 7.4 (log D^7.4) were obtained using the shake-flask technique at room temperature. In the shake-flask experiments, 50 mM of phosphate buffered saline pH 7.4 was used as the aqueous phase. The organic (n-octanol) and aqueous phases were mutually saturated by shaking for 4 h. The compounds were solubilized in the buffered aqueous phase at the highest concentration compatible with solubility and appropriate amounts of n-octanol were added. The two phases were shaken for about 20 min, by which time the partitioning equilibrium of solutes had been reached, and then centrifuged (10000 rpm, 10 min).
Series [10] concerns hCoV-OC43. The experiment in a line: Anti-hCoV-OC43 activity in HCT-8 cells, concentration-dependent.
Series [11] has as its target recombinant hDHODH (Homo sapiens (Human), UniProt Q02127). Description: hDHODH inhibition assay (DCIP reduction). As to conditions: recombinant GST-hDHODH; means ± SE of three independent experiments; read-out: hDHODH IC50 ± SE. The series is classed as biochemical.
The nature of series [12]: Solubility assay at pH 7.4 in PBS. The series is classed as physicochemical. The following applies: for solubility at 24 h: 25 °C, pH 7.4, aqueous buffer, thermodynamic from solid.
Protocol: Solubility assay at pH 7.4. […] The samples were shaken in an orbital shaker at 25° C. for 24 h. These suspensions were filtered through a PTFE 0.45 μm filter (VWR), and the solutions were chromatographically analyzed using a Perkin Elmer Ultra High Performance Liquid Chromatography (UHPLC) instrument, equipped with a reverse-phase (RP) C18 Phenomenex column (2.1×100 mm, 1.7 μm particle size). Gradient elution: the ratio of eluents A and B (0.1% trifluoroacetic acid in water and 0.1% trifluoroacetic acid in acetonitrile, respectively) changed linearly from 60% A-40% B to 0% A-100% B in 12 minutes, followed by 5 minutes in isocratic elution at 100% of eluent B and then 4 minutes in equilibration elution to reset the starting conditions. The flow rate was 0.5 mL/min. Standard injection volumes were either 2 or 4 μl for poorly soluble compounds. The detection system was a Perkin Elmer diode-array-detector. The wavelengths that were monitored for each compound were defined according to the compound's own absorption spectrum. Solubility, expressed as μM concentration of the saturated solution, was calculated via interpolation with external calibration curves that were obtained with solutions of each compound in acetonitrile.
Series [13] has as its system hCoV-OC43. Description: Focus forming reduction assay (FFRA), hCoV-OC43 in HCT-8 cells, single concentration. The following applies: HCT8 cells, 72 h p.i., vs DMSO control; for inhibition at 0.1 µM: Betacoronavirus 1, OC43, HCT-8, 72 h, read-out: % Decrease of hCoV-OC43 replication in presence of inhibitor 0.1 μM. The format is cell-based.
The conditions of series [14]: pH 7.4.
Protocol: as §1, §2
The test system of series [15] is SARS-CoV-2. As to conditions: literature value (refs 15, 16); read-out: EC50 SARS-CoV-2 from literature; cited from earlier work.
For series [16] the following is noted: literature value (refs 15, 16); read-out: CC50 from literature (SARS-CoV-2); cited from earlier work.
In series [17] the test system is RSV. As to conditions: literature value (ref 17); read-out: EC50 RSV from literature; cited from earlier work.

In brackets after ≈: the same amount, converted by molar mass. Like-named read-outs stand apart in the source and are kept apart here. A value given as a limit tells only on which side of the number the result lay.

Broadly, the EC50 is the concentration that produces a half-maximal response. As a reminder, the IC50 is the concentration at which inhibition is half-maximal. In general, melting point refers to the temperature of the solid-liquid transition. In general, solubility refers to the dissolved amount per volume that the medium holds.

Sequence of recombinant hDHODH (Q02127 whole entry): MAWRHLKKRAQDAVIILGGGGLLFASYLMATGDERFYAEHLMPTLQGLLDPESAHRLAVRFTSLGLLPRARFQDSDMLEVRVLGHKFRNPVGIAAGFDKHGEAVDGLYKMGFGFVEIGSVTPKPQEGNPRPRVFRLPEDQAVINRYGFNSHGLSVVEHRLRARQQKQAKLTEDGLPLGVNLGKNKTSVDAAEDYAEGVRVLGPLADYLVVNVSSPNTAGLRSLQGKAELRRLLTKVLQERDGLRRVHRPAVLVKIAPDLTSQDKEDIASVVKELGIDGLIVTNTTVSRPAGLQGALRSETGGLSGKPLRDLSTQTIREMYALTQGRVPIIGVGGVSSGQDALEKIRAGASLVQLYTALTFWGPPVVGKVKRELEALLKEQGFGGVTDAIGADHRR

As for `Nc1nc2c(ncn2COCCO)c(=O)[nH]1` [ACV], the 50% effective concentration (EC50) in [1] (read-out: EC50 anti-HSV of reference drug) was 180 nM.

Turning to `Cc1c(-c2ccc(-c3ccccc3F)cc2)nc2ccc(F)cc2c1C(=O)O` [Brequinar], the half-maximal effective concentration (EC50) in series [2] (Human coronavirus 229E, MRC5, MRC5 fibroblasts) worked out at 42.7 ± 3 nM; in series [2] (MRC5 fibroblasts), 22 nM; in [1] (read-out: EC50 HSV-1), 530 nM; in series [3], 1770 nM; in [4], 15 nM; in series [5] it was 760 nM. Besides, the EC50 in [10] (read-out: EC50 hCoV-OC43) is 42.7 nM; in series [10] (read-out: EC50 hCoV-OC43, listed as brequinar), 22 ± 3 nM. Moreover, the results for the CC50 at 72 h in series [6] and in series [7] were 168000 nM and 5000 nM, respectively. The CC50 at 3 days in series [8] was determined as 100000 nM. Besides, the “Log D7.4 ± SD” value in [9] turned out to be 1.83 ± 0.02.

For the compound `O=C(Nc1c(F)c(F)c(-c2ccccc2)c(F)c1F)c1c(O)nn2c1CCCC2` [Compound 5, 2-Hydroxy-N-(2,3,5,6-tetrafluoro-[1,1′-biphenyl]-4-yl)-4,5,6,7-tetrahydropyrazolo[1,5-a]pyridine-3-carboxamide], in series [11], the IC50 is 5.8 ± 0.4 nM. Also, the “Solubility in PBS” value in series [12] (pH 7.4) was “<LOD”. In series [13], the inhibition at 0.1 µM turned out to be 31.3%. In series [14], the “Log D7.4 ± SD” value is on record as 2.36 ± 0.02.

With `O=C(Nc1c(F)c(F)c(-c2ccnc(C(F)(F)F)c2)c(F)c1F)c1c(O)nn2ccccc12` [Compound 9, 2-Hydroxy-N-(2,3,5,6-tetrafluoro-4-(2-(trifluoromethyl)pyridin-4-yl)phenyl)pyrazolo[1,5-a]pyridine-3-carboxamide], in series [11], the IC50 is 150 ± 15 nM. Also, in series [13], the inhibition at 0.1 µM is more than 50%. Also, the “Log D7.4 ± SD” value in series [14] was 1.84 ± 0.06.

Turning to `O=C(Nc1c(F)c(F)c(-c2cccc(OC(F)(F)F)c2)c(F)c1F)c1c(O)nn2ccccc12` [Compound 15, 2-Hydroxy-N-(2,3,5,6-tetrafluoro-3′-(trifluoromethoxy)-[1,1′-biphenyl]-4-yl)pyrazolo[1,5-a]pyridine-3-carboxamide], the IC50 in series [11] was found to be 2.3 ± 0.33 nM. Besides, the inhibition at 0.1 µM in series [13] was 93.6%. Besides, the “Log D7.4 ± SD” value in [14] was 3.27 ± 0.19.

On to `CCCOc1cccc(-c2c(F)c(F)c(NC(=O)c3c(O)nn4ccccc34)c(F)c2F)c1` [Compound 17, 2-Hydroxy-N-(2,3,5,6-tetrafluoro-3′-propoxy-[1,1′-biphenyl]-4-yl) pyrazolo[1,5-a]pyridine-3-carboxamide], for which the figures for the 50% effective concentration (EC50) in series [1] (read-out: EC50 HSV-1) and in series [3] were 90 nM and 110 nM, respectively. Also, the “Log D7.4 ± SD” value in [14] is 3.28 ± 0.12. In [8], this compound gave a CC50 at 3 days of 117000 nM.

With `O=C(Nc1ccc2[nH]ccc2c1)c1c(O)nn2ccccc12` [Compound 19, 2-Hydroxy-N-(1H-indol-5-yl)pyrazolo[1,5-a]pyridine-3-carboxamide], in [11], the IC50 was more than 10000 nM. Further, the “Log D7.4 ± SD” value in [9] worked out at 0.45 ± 0.02.

Take `O=C(Nc1ccc2c(ccn2-c2ccccc2)c1)c1c(O)nn2ccccc12` [Compound 20, 2-Hydroxy-N-(1-phenyl-1H-indol-5-yl)pyrazolo[1,5-a]pyridine-3-carboxamide]: the melting point lay within 133.6 to 135.9 °C. For the same compound, in [11], the IC50 turned out to be 2760 ± 386 nM. For the same compound, the “Log D7.4 ± SD” value in series [9] was determined as 2.89 ± 0.05.

`O=C(Nc1ccc2c(c1)ncn2-c1ccccc1)c1c(O)nn2ccccc12` [Compound 21, 2-Hydroxy-N-(1-phenyl-1H-benzo[d]imidazol-5-yl)pyrazolo[1,5-a]pyridine-3-carboxamide]: the melting point was in the range of 133.6 to 135.9 °C. For the same compound, in [11], the IC50 was more than 10000 nM. Moreover, the “Log D7.4 ± SD” value in series [9] stood at 2.55 ± 0.04.

In turn, `O=C(Nc1ccc2c(c1)nnn2-c1ccccc1)c1c(O)nn2ccccc12` [Compound 22, 2-Hydroxy-N-(1-phenyl-1H-benzo[d][1,2,3]triazol-5-yl)pyrazolo[1,5-a]pyridine-3-carboxamide] came in with a melting point of 133.6 to 135.9 °C. The concentration for half-maximal inhibition (IC50) in [11] amounted to 7200 ± 1600 nM. The “Log D7.4 ± SD” value in series [9] turned out to be 1.59 ± 0.03.

Turning to `Oc1nn2ccccc2c1/N=N/c1c(F)c(F)c(-c2ccccc2)c(F)c1F` [Compound 25], the concentration for half-maximal inhibition (IC50) in series [11] amounted to 13 nM. Moreover, the “% Decrease of hCoV-OC43 replication in presence of inhibitor 0.1 μM” value in series [13] was determined as 18.70%.

Turning to `Cc1cc(Sc2ccncc2)c(C)cc1NC(=O)c1c(O)nn2ccccc12` [Compound 26, 2-Hydroxy-N-(2,5-dimethyl-4-(pyridin-4-ylthio)phenyl) pyrazolo[1,5-a]pyridine-3-carboxamide], the half-maximal inhibitory concentration (IC50) in [11] amounted to 2210 ± 366 nM. Moreover, the “Log D7.4 ± SD” value in [9] was determined as 1.76 ± 0.07.

Regarding `Cc1cc(NC(=O)c2c(O)nn3ccccc23)c(C(C)C)cc1Oc1ccccc1` [Compound 29, 2-Hydroxy-N-(2-isopropyl-5-methyl-4-phenoxyphenyl)pyrazolo[1,5-a]pyridine-3-carboxamide], the solubility at 24 h in [12] was 1.2 ± 0.28 µM (≈ 0.482 µg/mL). Moreover, the “Log D7.4 ± SD” value in [9] was 3.18 ± 0.09.

The compound `Cc1cc(Oc2ccccc2)c(C(C)C)cc1NC(=O)c1c(O)nn2ccccc12` [Compound 30, 2-Hydroxy-N-(5-isopropyl-2-methyl-4-phenoxyphenyl)pyrazolo[1,5-a]pyridine-3-carboxamide] showed a solubility at 24 h in [12] of 0.98 ± 0.23 µM (≈ 0.393 µg/mL). The “Log D7.4 ± SD” value in [9] is 2.91 ± 0.07.

For `Cc1cc(NC(=O)c2c(O)nn3ccccc23)c(C(C)C)cc1Oc1ccncc1` [Compound 36, 2-Hydroxy-N-(2-isopropyl-5-methyl-4-(pyridin-4-yloxy)phenyl)pyrazolo[1,5-a]pyridine-3-carboxamide], the solubility at 24 h in series [12] was determined as 111.1 ± 0.35 µM (≈ 44.7 µg/mL). The “Log D7.4 ± SD” value in [9] is recorded as 2.51 ± 0.07.

With `Cc1cc(NC(=O)c2c(O)nn3ccccc23)c(C(C)C)cc1Oc1ccc(C(F)(F)F)cc1` [Compound 37, 2-Hydroxy-N-(2-isopropyl-5-methyl-4-(4-(trifluoromethyl)phenoxy)phenyl)pyrazolo[1,5-a]pyridine-3-carboxamide], in [12], the solubility at 24 h stood at 1.23 ± 0.09 µM (≈ 0.577 µg/mL). Besides, the inhibition at 0.1 µM in series [13] was 36.1%.

Consider `CC(F)(F)COc1cccc(-c2c(F)c(F)c(NC(=O)c3c(O)nn4ccccc34)c(F)c2F)c1` [Compound 40, N-(3′-(2,2-difluoropropoxy)-2,3,5,6-tetrafluoro-[1,1′-biphenyl]-4-yl)-2-hydroxypyrazolo[1,5-a]pyridine-3-carboxamide], for which the melting point is 229.6 to 231.7 °C. Moreover, in series [11], the concentration for half-maximal inhibition (IC50) was 1.48 ± 0.2 nM.

For the compound `O=c1nc(NO)ccn1[C@@H]1O[C@H](CO)[C@@H](O)[C@H]1O` [EIDD-1931], the EC50 in series [15] was 300 nM; in [17], 690 nM. Also, the CC50 in [16] is more than 10000 nM.

On to `CCC(CC)COC(=O)[C@H](C)N[P@](=O)(OC[C@H]1O[C@@](C#N)(c2ccc3c(N)ncnn23)[C@H](O)[C@@H]1O)Oc1ccccc1` [Remdesivir], for which the EC50 was 34.8 ± 5 nM in series [2] (Human coronavirus 229E, MRC5 fibroblasts) and 147 ± 34 nM in [10] (read-out: EC50 hCoV-OC43). For the same compound, the CC50 in series [16] was more than 100000 nM.

The values are drawn from patent US20240034730A1, “PYRAZOLO DERIVATIVES AS HUMAN DIHYDROOROTATE DEHYDROGENASE (HDHODH) INHIBITORS FOR USE AS ANTIVIRALS” (DRUG DISCOVERY AND CLINIC S.R.L., priority 2020, published 2024).
